In patent US20250195576A1, “METHOD TO GENERATE MORE EFFICIENT CAR-T CELLS” (INSTITUT NATIONAL DE LA SANTÉ ET DE LA RECHERCHE MÉDICALE, priority 2022, published 2025):

Columns and labels:
[1] = test system: Human primary T lymphocytes; experiment: Viability assay (propidium iodide); type: cell-based; settings: in vitro culture
Description: PBT were treated with AS1842856 (500 nM) or vehicle only. Every seven days, some cells from the two conditions were collected and labeled with Propidium Iodide (PI). […] Significance was assessed using 2-way Anova test.
Viability assay. Cells were collected and propidium iodide was added (10 μg/ml, Invitrogen). Samples were run on FACSCalibur (Becton Dickinson) and analyzed using FlowJo software.

[2] = test system: ERK and AKT signaling proteins; experiment: Western blot of ERK and AKT phosphorylation upon TCR stimulation; type: cell-based, human; settings: after TCR stimulation, including at steady state; data not shown
Description: Western blot analysis. Protein expression levels were analyzed by Western blot as described (Froehlich et al. 2016). Blotting with primary was followed by goat-anti-mouse- or goat-anti-rabbit-HRP (Jackson ImmunoReseach) incubation and ECL revelation (GE Healthcare, #RPN2106).

[3] = test system: Human primary T lymphocytes; experiment: Calcium measurements upon TCR stimulation; type: cell-based; settings: compared to untreated cells; data not shown
Description: Calcium Measurements. T cells were incubated for 20 minutes at 37° C. with 1.5 μM Fura-2/AM (Molecular Probes, F1225). Experiments were performed at 37° C. in mammalian saline buffer (140 mM NaCl, 5 mM KCl, 1 mM CaCl2, 1 mM MgCl2, 20 mM HEPES, 11 mM glucose). Calcium measurements by spectrofluorimetry were performed as previously described (Conche et al. 2009) with a Cary Eclipse spectrofluorimeter (Varian) (excitation: 340 and 380 nm; emission: 510 nm).

[4] = test system: Human primary T lymphocytes; experiment: TNF-α intracellular labeling and cytokine secretion (MSD assay); type: cell-based
Description: (§1) FIGS. 1A to 1C: FOXO1 inhibition allows increase number of cytotoxic T cells and increased their activity. Human primary T lymphocytes from healthy donor (PBT) were treated with AS1842856 (500 nM) or equivalent of DMSO for 7 days. (1A) Cells were surface labeled with anti-CD4 and anti-CD8, next fixed and permeabilized before labeled with antibodies against Granzyme B. The graphs present the values correspond to the mean±SEM obtained with three independent donors. Significance was assessed using a paired Student t-test. (1B) At the end of the culture, cells were stimulated by PMA and ionomycin during three hours. After CD4 and CD8 labelling, intracellular detection of TNF-α was performed using an antibody against TNF-α. The values correspond to the mean±SEM obtained with three independent donors. Significance was assessed using a paired Student t-test. (1C) CD8 T cells from vehicle or treated cells were purified and co-cultured with P815 target cells pre-coated with anti-CD3 mAb, percentage of lysis was evaluated by 51Cr release assay at different effector: target ratios. The values correspond to the mean±SEM obtained with three independent donors. Significance was assessed using 2-way Anova test.
(§2) Flow cytometry. […] After wash with PBS, cells were immediately analyzed by flow cytometry. […] After two washes, cells were run on BD LSRII (BD Biosciences) and analyzed using FlowJo software.

[5] = test system: Human primary T lymphocytes; experiment: T cell subsets and immune checkpoint expression by flow cytometry; type: cell-based
Description: PBT were treated with 500 nM of AS1842856 or vehicle only for 7 days. (3A) Memory subsets composition in vehicle or AS1842856 CD4 (upper panel) and CD8 (lower panel) cells. TN are CD45RA+, CD27+, CD95−; TSCM are CD45RA+, CD27+, CD95+; TCM are CD45RA−, CD27+; TEM are CD45RA−, CD27− and Teff are CD45RA+, CD27−. The graphs show the mean percentage±SEM of the different subsets in vehicle or AS1842856 conditions on CD4 (upper panel) and CD8 (lower panel) T cells obtained with five independent donors. Significance was assessed using 1-way Anova test. (3B) CTLA-4, PD-1 and TIGIT expressions on CD4 (upper panel) and CD8 (lower panel) T cells were measured by FACS. The graphs show the MFI±SEM obtained with five independent donors. Significance was assessed using a paired Student t-test.
(§3) Flow cytometry. Cells were washed and stained with antibodies diluted in PBS (Thermo Fisher Scientific; cat #10010001) supplemented with 0.1% BSA (Sigma-Aldrich, cat #A7030-500G) for 20 minutes at 4° C. After wash with PBS, cells were immediately analyzed by flow cytometry. For intracellular staining, cells were fixed with 4% paraformaldehyde (PFA) for 10 minutes at room temperature, permeabilized using a buffer containing 0.1% Saponin (Sigma-Aldrich, 84510) in PBS and stained after two PBS washes using antibodies diluted in the same saponin buffer for 30 minutes at 4° C. After two washes, cells were run on BD LSRII (BD Biosciences) and analyzed using FlowJo software.

[6] = test system: FOXO1; experiment: CD62L expression by cytometry; type: cell-based, human
Description: Cell transfection. Cells were transfected by nucleofection using the Human T Cell Nucleofector solution (Lonza, VPA-1002) and program U-014 of the Nucleofector AMAXA. For CRISPR, 2×10^6 cells were nucleofected with 75 pmol of Cas9 protein (Thermo Fisher, #A36499) and one RNA guide targeting the FOXO1 gene (Thermo Fisher, #sgRNACRISPR889854_SGM Foxo1) at a 1:1 molar ratio. To induce FOXO1 expression, 5×10^6 cells were transfected with 5 μg DNA of the pEGFP-FOXO1-T24A-S256A-S319A-H215R plasmid (Nagashima et al., 2010) or pEGFP-N1 (clontech) as control. Jurkat T cells (5×106 in RPMI 1640 medium) were electroporated at 260 V, 1000 μF in 4-mm polycarbonate cuvettes (Eurogentec) with 5 μg of the GFP, the triple mutant T24A/S256A/S319A FOX01-GFP (FOXO1-TM-GFP) or the FOXO1-TM-GFP DNA binding mutant plasmids (FOXO1-TM-H215R-GFP) (Fabre et al. 2008). Four hours later, AS1842856 was added or not in the culture. At 48 hours, CD62L expression was analyzed by cytometry.
Flow cytometry. Cells were washed and stained with antibodies diluted in PBS (Thermo Fisher Scientific; cat #10010001) supplemented with 0.1% BSA (Sigma-Aldrich, cat #A7030-500G) for 20 minutes at 4° C. After wash with PBS, cells were immediately analyzed by flow cytometry. […] After two washes, cells were run on BD LSRII (BD Biosciences) and analyzed using FlowJo software.

[7] = test system: Human primary T lymphocytes; experiment: In vitro proliferation assay (CFSE dilution, anti-CD3/CD28 beads); type: cell-based; settings: data not shown
Description: Proliferation assay. In vitro proliferation assay of primary T cells was assessed by dilution of Cell Trace Fluorescent Green kit (CFSE, Invitrogen, cat #C34554). After two washes in RPMI 1640 GlutaMAX medium, cells were resuspended at 4×10^6 cells per ml in a 5 μM Cell Trace Fluorescent Green solution. Cells were incubated in dark at 37° C. for 20 minutes. After the loading, cells were washed with a volume of hot RPMI medium supplemented with 10% Human AB serum, penicillin and streptomycin (50U/ml and 50 μg/m respectively) corresponding to 5 times the loading volume. Cell suspension was collected and dispensed into 96-wells round-bottom plates (2×10^5 cells per well) and stimulated using anti-CD3/CD28 coated-beads Dynabeads (Invitrogen, #11131D) for 3 days. Samples were run on BD LSR Fortessa and analyzed using FlowJo software. For in vivo proliferation assay, T^AS cells were labeled by dilution of CFSE as for in vitro proliferation assay described above. Then 10^7 CFSE^+ cells per immunodificient NSG mouse (NOD.Cg-Prkde^scid I12rg^tm1WjI/SzJ mouse, cat #JAX: 005557, Charles River) resuspended in 100 μL PBS supplemented by 10% FBS were intravenously injected in the retro-orbital vein. 5, 9 or 12 days after injection, spleens were collected to be minced and meshed on the top of a 40 μm cell strainer (Thermo Fisher, #22363547). […] Data were analyzed using FlowJo software.

[8] = test system: Human primary T lymphocytes; experiment: Granzyme B expression by intracellular flow cytometry; type: cell-based
Description: as §1
Cells. […]
as §2

[9] = test system: Human primary T lymphocytes; experiment: Chemokine receptor membrane expression by flow cytometry; type: cell-based; settings: data not shown
Description: as §3

CCn1cc(C(=O)O)c(=O)c2c(N)c(F)c(NC3CCCCC3)cc21 [AS1842856]
T cell viability [1]: promotes
Toxicity on T cells [1]: no toxicity
Phosphorylation of AKT [2]: hypophosphorylation
Phosphorylation of ERK [2]: hyperphosphorylation
Calcium influx induced upon TCR stimulation [3]: less rapid and of a lower magnitude
TNF-α expression (percentage of cells, intracellular labeling) ([4]; 500 nM 7 days, then PMA and ionomycin three hours): significantly increased
TNF-α secreted in supernatant (MSD assay) ([4]; data not shown): confirmed
CTLA-4 expression [5]: no significant modification
Markers of Th1 (T-bet+), Th2 (GATA3+) and Treg (FOXP3+) subsets ([5]; CD4 subsets, data not shown): no significant changes
Cells expressing PD1 ([5]; after AS1842856 treatment): no more than 10%
Naive subset (CD45RA+/CD27+/CD95−) ([5]; both CD4 and CD8 T cells): sharp decrease
TSCM subset (CD45RA+/CD27+/CD95+) ([5]; both CD4 and CD8 T cells): strong increase
PD1 expression ([5]; both CD8+ and CD4+ cells): small but significant increase
CD8 expression ([5]; data not shown): decreased expression
Tfh (CXCR5+, BcL-6+) subset ([5]; data not shown): slight increase
TIGIT expression ([5]; reaching significance only in CD8+ T cells): consistent increase
CD62L expression in Jurkat T cells with FOXO1 H215R mutant ([6]; Jurkat T cell line transfected with FOXO1 H215R mutant, 48 hours, data not shown): could not be further decreased
CD62L expression ([6]; primary T cells): decrease
CFSE dilution peaks ([7]; after 60h of stimulation): greater number of CFSE dilution peaks
Time to proliferation after stimulation ([7]; anti-CD3/CD28 beads, CFSE): 40 h
Granzyme B expression in CD8 subset ([8]; AS1842856 500 nM, 7 days, CD8 T cells): upregulated
Increase of granzyme B expression ([8]; same conditions as Foxo1 invalidation by CRISPR, data not shown): more than two-fold increase
CCR4 membrane expression [9]: increase
CCR6 membrane expression [9]: increase
CX3CR1 membrane expression [9]: increase
CXCR4 membrane expression [9]: significant decrease
